System: E710.2.3
Assay: Homotypic aggregation assay

Question: Paraformaldehyde was tested. Which “HOMOTYPIC ADHESION induced by DMF10.62.3 in presence of chemical” value did it give?
Answer: The value was “inhibited”.

— patent US8444972B2, “Antitumor antibodies, proteins, and uses thereof” (University of Massachusetts, priority 1999, dated 2013)
